Source: paper PMC9969401, “Discovery of 2-(3-Benzamidopropanamido)thiazole-5-carboxylate Inhibitors of the Kinesin HSET (KIFC1) and the Development of Cellular Target Engagement Probes” (Journal of Medicinal Chemistry, 2023)

Columns and labels:
[1] = system: DLD1 cells (4NCA and 4N); assay type: cell-based; details: human
Protocol: Inhibition of HSET-mediated clustering was measured using a phenotypic assay measuring the formation of multipolar metaphase spindles in DLD1 cells with (4NCA) or without (4N) centrosome amplification. 4NCA cells were generated by treating 2N DLD1 cells with 2 μΜ DCB for 24 h, washed, and released in growth media for 24 h. 4N and 4NCA DLD1 cells were plated in 96-well ibidi μ-Clear plates (IB-89626, ibidi) with a no. 1.5 polymer coverslip bottom with optimal imaging properties. To enrich the mitotic population, cells were first treated for 3.5 h with 8 μM pro-TAME (I-440-01M, R&D system), an inhibitor of APC/C that transiently arrests cells in metaphase without affecting the structure of the spindle. Following the initial arrest, cells were treated with HSET compounds in the presence of 8 μM MG-132 (S2619, SelleckChem), a proteasome inhibitor that helps to maintain the metaphase arrest, where the number of spindle poles/cell can be optimally quantified by an automated segmentation analysis.
Cells were then fixed in methanol and stained for 3 h for mitotic pole marker aurora A (1:1000 610939 mouse anti-IAK1, BD Biosciences) and phosphorylated histone H3 (1:1500 ab47297 anti-histone H3 pS10, Abcam) as a marker of mitotic cells in 1.5% FBS in PBS. Following primary antibody treatment, cells were incubated with secondary antibodies Alexa Fluor 488 goat antimouse and Alexa Fluor 555 goat antirabbit (1:1500, A11029 and A21429, respectively, Life Technologies) together with 1 μg/mL DAPI (D9542, Sigma) in 1.5% FBS in PBS. Image acquisition was performed at 10× using the GE INCELL 2200 High Content Imaging System (Cytiva) and analyzed using the InCell Investigator software. Mitotic cells were identified by high pHH3 staining and were scored as multipolar if they had more than two mitotic spindle poles. The percentage of multipolar mitoses was calculated by dividing the number of multipolar mitoses by the total of all visible mitoses in one well of a 96-well plate (n > 100 for each replicate, two replicates per concentration point).
3. […]

[2] = system: DLD1 HSET KO cells; assay: Click probe localization imaging in DLD1 HSET KO cells (negative control); assay type: cell-based, human; details: DLD1 HSET KO, Tz-Cy5 800nM
Protocol: The Cy-5 tetrazine dye selected for this experiment is not cell-permeable, thus fixation and permeabilization of cells were necessary prior to its addition. Experiments were conducted in DLD1 4N cells and, as a negative control, isogenic 2N DLD1 HSET KO cells in which HSET expression was prevented by the disruption of the HSET gene using CRISPR. Cells were treated first with proTAME for 2 h to accumulate mitotic events, followed by treatment with the TCO probe 40 for 45 min. The live cells were then fixed and permeabilized before treatment with the tetrazine-Cy5 dye and incubation to allow the IEDDA reaction to occur. Additionally, the cells were stained for the endogenous HSET protein using indirect immunofluorescence and imaged to observe the fluorescence from both the TCO probe and antibody-labeled HSET. […] A 3 μM concentration of the probe 40 gave an acceptable signal-to-noise ratio of around 2:1. Even under these optimal conditions, some residual uniform cytoplasmic Cy5 signal was observed within the cells. However, a clear Cy5 decoration of the mitotic spindle was seen, which overlapped with the signal from the antibody-probed endogenous HSET protein (Figures 2A and S6). […] We observed a 14–17-fold increase in signal in DLD1 4N cells treated with 40 relative to tetrazine-Cy5 alone. […] Comparing the intensity of click probe labeling coincident with the mitotic spindle in DLD1 4N cells to that in DLD1 HSET KO cells after both were treated with 40, we observed a twofold higher signal in the former.
Direct target engagement of active inhibitor 36 was measured by calculating its capacity to displace the TCO-containing probe 40. 4N DLD1 cells and DLD1 HSET KO cells (negative control) were plated in 96-well ibidi μ-Clear plates (IB-89626, ibidi). Cells were first treated for 2 h with 8 μM pro-TAME (I-440–01M, R&D system) to accumulate mitotic cells and were then treated with 8 μM MG-132 (S2619, SelleckChem) and 3 μM 40, alone or together with active inhibitor 36 in DMEM media with 1% FBS for 45 min. Cells were then washed three times in DMEM, with the second wash being incubated for 10 min to ensure the optimal reduction of unspecific compound binding. After an additional PBS wash, cells were then fixed in 4% PFA/PBS (15670799, Thermo Scientific) prior to incubation with 400 nM tetraszine-Cy5 (CLK-015-05, Jena Biosciences) in 1.5% FBS/PBS for 10 min at room temperature. Cells were permeabilized by the addition of 0.5% TritonX-100/PBS for 5 min before being stained overnight for Pericentrin (1:1500 ab28144 mouse anti-PCNT, Abcam) and KIFC1 (1:1500 12313S rabbit anti-KIFC1, Cell Signaling Technologies). Secondary antibodies Alexa Fluor 488 donkey antirabbit and Alexa Fluor 555 donkey antimouse (1:1500, A21206 and A31570, respectively, Life Technologies) were added together with 1 μg/mL DAPI (D9542, Sigma) in 1.5% FBS in PBS.
Plates were imaged at 40× using a Zeiss LSM980 confocal microscope with Airyscan 2. The subsequent analysis and quantification were performed using 3D image segmentation with the Arivis4D software. Mitotic cells were segmented by selecting for the highest density (integrated DAPI intensity/total volume), and the mitotic pole areas were segmented using the Pericentrin signal. The signal of the click probe (Cy5) and total KIFC1 (FITC) was measured on the mitotic pole area, and both were normalized to the control condition containing 40 probe alone. The ratio of probe per target (click probe pole integrated intensity signal/KIFC1 pole integrated intensity signal) was used to calculate the occupancy of the probe in the target protein and normalized to the control condition containing 40 probe alone (n > 100 for each replicate, two replicates per concentration point).

[3] = BALB/c mouse plasma stability assay; assay type: in vitro ADME; details: read-out: estimated half-life in plasma

half-life [3] [h]	Compound	concentration at which cellular toxicity observed [1] [µM]	Average Pixel intensity ([2]; 5μM, Panel A: 3 quick washes at room temperature)	Average Pixel intensity ([2]; 5μM, Panel B: 2 quick washes then 1 at 37 °C for 5 minutes)	Average Pixel intensity ([2]; 5μM, Panel C: 2 quick washes then 1 at 37 °C for 10 minutes)	Average Pixel intensity ([2]; 10μM, Panel A: 3 quick washes at room temperature)	Average Pixel intensity ([2]; 10μM, Panel B: 2 quick washes then 1 at 37 °C for 5 minutes)	Average Pixel intensity ([2]; 10μM, Panel C: 2 quick washes then 1 at 37 °C for 10 minutes)
–	CCCOC(=O)c1sc(NC(=O)C[C@H](CCCNC)NC(=O)c2cccc(-c3noc(C)n3)c2)nc1C [Compound 35, Propyl (S)-4-Methyl-2-(3-(3-(5-methyl-1,2,4-oxadiazol-3-yl)benzamido)-6-(methylamino)hexanamido)thiazole-5-carboxylate]	60	–	–	–	–	–	–
–	CCCOC(=O)c1sc(NC(=O)C[C@H](CCCN(C)C(=O)O[C@@H]2CC/C=C/CCC2)NC(=O)c2cccc(-c3noc(C)n3)c2)nc1C [Compound 38, Propyl 2-((S)-6-(((((S,E)-Cyclooct-4-en-1-yl)oxy)carbonyl)(methyl)amino)-3-(3-(5-methyl-1,2,4-oxadiazol-3-yl)benzamido)hexanamido)-4-methylthiazole-5-carboxylate]	–	799	752	702	1464	1121	803
3.58	CCCOC(=O)c1sc(NC(=O)CCNC(=O)c2cccc(-c3noc(C)n3)c2)nc1C [Compound 32, Propyl 4-Methyl-2-(3-(3-(5-methyl-1,2,4-oxadiazol-3-yl)benzamido)propanamido)thiazole-5-carboxylate]	> 15	–	–	–	–	–	–
